Measured values as given in ChEMBL document CHEMBL5226304, “Fused-azepinones: Emerging scaffolds of medicinal importance” (Eur J Med Chem, 2021).
pIC50: −log10 of the molar value. Values after ≈ are worked out from the molar mass of the structure shown. Blank lines part the entries; values can stand above or below the compound they belong to.

Columns and labels:
786-0 = assay: Antitumor activity against human 786-0 cells; assay type: functional
[1] = target: Cyclin-dependent kinase 5/CDK5 activator 1 (Homo sapiens, UniProt Q00535); assay: Inhibition of CDK5/p25 (unknown origin); assay type: protein-complex assay
[2] = target: Cyclin-dependent kinase 1/cyclin B (Homo sapiens, UniProt P06493); assay: Inhibition of CDK1/Cyclin B (unknown origin) in presence of gamma32P-ATP by scintillation counter analysis; assay type: protein-complex assay
Integrin alpha-V/beta-3 = Integrin alpha-V/beta-3 (Homo sapiens, UniProt P05106+P06756); assay: Antagonist activity against human integrin alphaVbeta3 expressed in CHO-K1 cells measured after 4 hrs by Cell adhesion assay; assay type: cell-based
Homo sapiens = species on record: Homo sapiens; assay: Selectivity ratio of IC50 for Chk1 (unknown origin) to IC50 for (unknown origin)
MDA-MB-231 = assay: Cytotoxicity against human MDA-MB-231 cells by MTT assay; assay type: functional, cell-based
MCF7 = assay: Cytotoxicity against human MCF7 cells by MTT assay; assay type: functional, cell-based
[3] = Inhibition of MAPKK (unknown origin); design: species or system Homo sapiens
[4] = Inhibition of cAMP-dependent protein kinase (unknown origin); design: species or system Homo sapiens
[5] = Inhibition of cGMP-dependent protein kinase (unknown origin); design: species or system Homo sapiens
[6] = target: Cyclin-dependent kinase 4/cyclin D1 (Homo sapiens, UniProt P11802); assay: Inhibition of CDK4/Cyclin D1 (unknown origin); assay type: protein-complex assay
[7] = target: RAF proto-oncogene serine/threonine-protein kinase (Homo sapiens, UniProt P04049); assay: Inhibition of c-Raf (unknown origin)
Protein kinase C (PKC) = assay: Inhibition of Protein kinase C (unknown origin); assay type: protein assay, Homo sapiens
Casein kinase I = assay: Inhibition of CK1 (unknown origin); assay type: protein assay, Homo sapiens
[8] = target: Serine/threonine-protein kinase Chk1 (Homo sapiens, UniProt O14757); assay: Inhibition of Chk1 (unknown origin)
CDK9/Cyclin T = CDK9/Cyclin T (Homo sapiens, UniProt P50750); assay: Inhibition of CDK9/Cyclin T (unknown origin); assay type: protein-complex assay
[9] = target: Dual specificity tyrosine-phosphorylation-regulated kinase 1A (Homo sapiens, UniProt Q13627)
Description: Inhibition of DYRK1A (unknown origin)

[10] = target: Cyclin-dependent kinase 2/cyclin A (Homo sapiens, UniProt P24941); assay: Inhibition of CDK2/Cyclin A (unknown origin); assay type: protein-complex assay
L5178Y = assay: Cytotoxicity against mouse L5178Y cells by MTT assay; assay type: functional, cell-based
[11] = target: Glycogen synthase kinase-3 beta (Rattus norvegicus, UniProt P18266); assay: Inhibition of recombinant recombinant rat GSK3beta using GS-1 peptide as substrate in presence of [gamma-32P]ATP measured after 30 mins incubation by scintillation counting analysis
Sequence of Glycogen synthase kinase-3 beta (P18266 whole entry): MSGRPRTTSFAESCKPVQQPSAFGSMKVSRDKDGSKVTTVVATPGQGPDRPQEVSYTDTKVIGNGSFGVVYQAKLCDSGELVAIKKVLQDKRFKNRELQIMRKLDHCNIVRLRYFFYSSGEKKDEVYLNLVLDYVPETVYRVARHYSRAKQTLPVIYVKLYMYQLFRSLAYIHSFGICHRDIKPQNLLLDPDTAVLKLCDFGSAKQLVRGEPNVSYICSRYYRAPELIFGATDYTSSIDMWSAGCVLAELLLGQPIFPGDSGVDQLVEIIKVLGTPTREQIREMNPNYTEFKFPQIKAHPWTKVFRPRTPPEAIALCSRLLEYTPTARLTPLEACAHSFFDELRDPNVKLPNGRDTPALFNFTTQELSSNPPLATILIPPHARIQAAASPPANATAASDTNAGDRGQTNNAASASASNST

Sequence of Integrin alpha-V/beta-3 (P05106 27-788 limits assumed): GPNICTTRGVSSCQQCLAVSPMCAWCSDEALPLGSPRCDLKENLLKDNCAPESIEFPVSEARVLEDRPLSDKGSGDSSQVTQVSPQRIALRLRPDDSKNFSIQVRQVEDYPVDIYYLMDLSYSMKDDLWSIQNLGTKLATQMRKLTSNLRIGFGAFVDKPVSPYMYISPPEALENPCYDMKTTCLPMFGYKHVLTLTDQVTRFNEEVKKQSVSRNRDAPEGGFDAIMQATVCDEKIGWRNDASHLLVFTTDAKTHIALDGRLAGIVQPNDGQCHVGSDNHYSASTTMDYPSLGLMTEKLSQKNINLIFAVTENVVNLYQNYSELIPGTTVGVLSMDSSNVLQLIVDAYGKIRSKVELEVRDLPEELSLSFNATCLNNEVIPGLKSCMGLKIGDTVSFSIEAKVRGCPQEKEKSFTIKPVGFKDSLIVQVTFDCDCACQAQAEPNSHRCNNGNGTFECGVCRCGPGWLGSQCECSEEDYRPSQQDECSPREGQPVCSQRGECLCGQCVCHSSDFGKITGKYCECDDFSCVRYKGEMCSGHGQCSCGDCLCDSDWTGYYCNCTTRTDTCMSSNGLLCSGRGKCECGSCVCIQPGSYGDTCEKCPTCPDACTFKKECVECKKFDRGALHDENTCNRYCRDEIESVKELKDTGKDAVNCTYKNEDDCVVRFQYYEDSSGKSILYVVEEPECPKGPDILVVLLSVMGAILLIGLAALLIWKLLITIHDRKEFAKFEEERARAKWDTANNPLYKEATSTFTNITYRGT
Sequence of Integrin alpha-V/beta-3 (P06756 31-889 limits assumed): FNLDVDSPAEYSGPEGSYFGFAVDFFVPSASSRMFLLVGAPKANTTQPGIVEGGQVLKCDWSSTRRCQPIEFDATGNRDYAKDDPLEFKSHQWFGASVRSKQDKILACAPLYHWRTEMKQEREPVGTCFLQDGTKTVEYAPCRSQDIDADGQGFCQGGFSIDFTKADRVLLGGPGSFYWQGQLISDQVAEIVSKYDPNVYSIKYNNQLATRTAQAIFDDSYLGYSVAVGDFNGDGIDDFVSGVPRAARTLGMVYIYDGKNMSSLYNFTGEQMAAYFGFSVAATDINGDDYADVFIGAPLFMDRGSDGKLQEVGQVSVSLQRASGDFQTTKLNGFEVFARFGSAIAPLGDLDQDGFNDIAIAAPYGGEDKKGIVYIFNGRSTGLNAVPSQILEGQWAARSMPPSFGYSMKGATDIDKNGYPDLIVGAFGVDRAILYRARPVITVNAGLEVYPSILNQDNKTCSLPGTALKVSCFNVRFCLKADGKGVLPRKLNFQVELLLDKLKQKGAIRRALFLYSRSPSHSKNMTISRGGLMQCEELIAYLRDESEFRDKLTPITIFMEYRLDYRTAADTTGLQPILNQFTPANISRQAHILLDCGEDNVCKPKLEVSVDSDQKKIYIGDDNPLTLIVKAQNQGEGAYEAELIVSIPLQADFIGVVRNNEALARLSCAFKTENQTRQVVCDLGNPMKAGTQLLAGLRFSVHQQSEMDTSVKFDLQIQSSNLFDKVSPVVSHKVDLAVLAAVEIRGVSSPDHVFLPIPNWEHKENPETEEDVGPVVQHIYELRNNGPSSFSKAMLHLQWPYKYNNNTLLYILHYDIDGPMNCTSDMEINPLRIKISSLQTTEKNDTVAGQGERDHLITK
Sequence of Integrin alpha-V/beta-3 (P06756 891-1048 limits assumed): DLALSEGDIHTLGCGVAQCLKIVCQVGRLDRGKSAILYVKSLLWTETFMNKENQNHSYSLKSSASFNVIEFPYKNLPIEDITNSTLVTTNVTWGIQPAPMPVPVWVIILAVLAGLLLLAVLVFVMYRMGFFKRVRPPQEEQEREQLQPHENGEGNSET
Sequence of Cyclin-dependent kinase 5/CDK5 activator 1 (Q00535 whole entry): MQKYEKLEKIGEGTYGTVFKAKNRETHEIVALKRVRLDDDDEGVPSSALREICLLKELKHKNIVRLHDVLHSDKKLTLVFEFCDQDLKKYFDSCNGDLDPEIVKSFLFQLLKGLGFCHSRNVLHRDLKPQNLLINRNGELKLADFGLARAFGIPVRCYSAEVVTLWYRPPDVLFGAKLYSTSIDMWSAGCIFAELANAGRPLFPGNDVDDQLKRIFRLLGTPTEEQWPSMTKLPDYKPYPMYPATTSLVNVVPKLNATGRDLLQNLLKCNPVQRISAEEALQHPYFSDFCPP
Sequence of Cyclin-dependent kinase 5/CDK5 activator 1 (Q15078 whole entry, further chain): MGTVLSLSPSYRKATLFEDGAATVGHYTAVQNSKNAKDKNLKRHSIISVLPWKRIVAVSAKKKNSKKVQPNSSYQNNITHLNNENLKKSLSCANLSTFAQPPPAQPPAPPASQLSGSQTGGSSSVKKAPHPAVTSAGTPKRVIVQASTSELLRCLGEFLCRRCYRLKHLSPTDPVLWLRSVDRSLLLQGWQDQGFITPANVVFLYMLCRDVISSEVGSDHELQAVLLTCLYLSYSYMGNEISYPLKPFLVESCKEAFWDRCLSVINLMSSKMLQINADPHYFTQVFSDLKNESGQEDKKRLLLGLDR
Sequence of Cyclin-dependent kinase 4/cyclin D1 (P11802 whole entry): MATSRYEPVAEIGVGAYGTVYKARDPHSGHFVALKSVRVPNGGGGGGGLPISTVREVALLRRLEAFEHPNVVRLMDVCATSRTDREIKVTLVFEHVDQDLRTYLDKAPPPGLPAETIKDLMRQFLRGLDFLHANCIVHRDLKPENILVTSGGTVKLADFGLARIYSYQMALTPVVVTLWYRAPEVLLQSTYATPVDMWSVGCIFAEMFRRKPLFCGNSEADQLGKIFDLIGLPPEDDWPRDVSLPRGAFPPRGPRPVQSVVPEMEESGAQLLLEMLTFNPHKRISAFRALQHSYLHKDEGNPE
Sequence of Cyclin-dependent kinase 4/cyclin D1 (P24385 whole entry, further chain): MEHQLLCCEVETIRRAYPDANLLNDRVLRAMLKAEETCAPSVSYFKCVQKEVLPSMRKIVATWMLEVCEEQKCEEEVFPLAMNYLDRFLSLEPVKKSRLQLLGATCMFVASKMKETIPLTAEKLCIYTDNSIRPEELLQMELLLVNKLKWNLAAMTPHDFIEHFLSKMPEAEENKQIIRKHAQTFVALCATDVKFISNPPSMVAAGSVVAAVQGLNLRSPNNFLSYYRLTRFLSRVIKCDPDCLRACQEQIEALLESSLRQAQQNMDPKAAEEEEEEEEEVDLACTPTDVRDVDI
Sequence of RAF proto-oncogene serine/threonine-protein kinase (P04049 whole entry): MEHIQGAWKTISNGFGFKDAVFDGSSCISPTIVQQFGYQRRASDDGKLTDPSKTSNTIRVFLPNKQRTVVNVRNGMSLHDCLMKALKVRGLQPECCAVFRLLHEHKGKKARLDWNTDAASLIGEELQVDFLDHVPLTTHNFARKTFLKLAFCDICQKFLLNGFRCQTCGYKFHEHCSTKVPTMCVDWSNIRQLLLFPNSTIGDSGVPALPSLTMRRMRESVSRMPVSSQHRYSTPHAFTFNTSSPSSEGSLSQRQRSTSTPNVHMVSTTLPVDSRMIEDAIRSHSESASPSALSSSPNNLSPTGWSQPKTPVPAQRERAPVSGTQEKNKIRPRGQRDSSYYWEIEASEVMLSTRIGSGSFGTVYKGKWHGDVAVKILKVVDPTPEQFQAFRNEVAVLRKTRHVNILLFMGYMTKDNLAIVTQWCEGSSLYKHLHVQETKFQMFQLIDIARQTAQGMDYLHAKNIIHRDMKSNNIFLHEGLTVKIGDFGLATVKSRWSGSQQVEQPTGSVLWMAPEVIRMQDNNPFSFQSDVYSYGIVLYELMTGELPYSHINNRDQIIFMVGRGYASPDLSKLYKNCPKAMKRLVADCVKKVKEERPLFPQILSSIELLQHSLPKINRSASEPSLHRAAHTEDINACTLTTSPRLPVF
Sequence of Serine/threonine-protein kinase Chk1 (O14757 whole entry): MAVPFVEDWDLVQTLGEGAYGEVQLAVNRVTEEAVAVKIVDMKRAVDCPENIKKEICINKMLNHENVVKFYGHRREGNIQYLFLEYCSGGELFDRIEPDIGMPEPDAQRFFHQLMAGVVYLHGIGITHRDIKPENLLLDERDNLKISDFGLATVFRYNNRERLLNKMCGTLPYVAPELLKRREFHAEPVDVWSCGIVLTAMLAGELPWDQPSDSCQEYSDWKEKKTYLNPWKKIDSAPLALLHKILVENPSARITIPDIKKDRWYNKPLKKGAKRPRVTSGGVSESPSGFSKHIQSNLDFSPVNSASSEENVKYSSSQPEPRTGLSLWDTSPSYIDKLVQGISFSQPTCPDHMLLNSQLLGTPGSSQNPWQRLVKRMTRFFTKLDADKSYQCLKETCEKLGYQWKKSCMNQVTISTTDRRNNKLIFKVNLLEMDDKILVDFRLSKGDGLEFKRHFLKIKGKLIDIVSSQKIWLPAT

Ratio IC50 (Homo sapiens): 32
SMILES: O=C1N=C(NCc2ccccc2)N/C1=C1/CCNC(=O)c2[nH]c(-c3ccccc3)cc21

pIC50 [1]: 7.92
SMILES: O=C1NCC/C(=N\Nc2cccnc2Cl)c2c1[nH]c1ccc(F)cc21

pIC50 [1]: 5.04 | pIC50 [2]: < 5.00
SMILES: CCNC1=NC(=O)/C(=C2\CCNC(=O)c3[nH]c(Br)c(Br)c32)N1

pIC50 [3]: < 4.00 | pIC50 [4]: 5.15 | pIC50 [5]: < 4.00 | pIC50 [6]: < 5.00 | pIC50 [7]: < 5.00
SMILES: O=C1Cc2c([nH]c3ccc([N+](=O)[O-])cc23)-c2ccccc2N1 [ALSTERPAULLONE]

IC50 (Protein kinase C (PKC)): 9 µM | pIC50 [1]: 5.15 | pIC50 [2]: 5.40 | IC50 (Casein kinase I): 4.5 µM
SMILES: O=C1NC(=O)/C(=C2\CCNC(=O)c3[nH]c(Br)cc32)N1 [SPONGIACIDIN D]

IC50 (Protein kinase C (PKC)): 22 µM
SMILES: O=C1NC(=O)/C(=C2\CCNC(=O)c3[nH]ccc32)N1 [SPONGIACIDIN C]

pIC50 [8]: < 6.00 | Ratio IC50 (Homo sapiens): > 64
SMILES: CCCNC1=NC(=O)/C(=C2\CCNC(=O)c3[nH]c(-c4ccccc4)cc32)N1

pIC50 (CDK9/Cyclin T): 6.62 | pIC50 [9]: < 5.00 | pIC50 [1]: 5.14 | pIC50 [10]: 5.21 | IC50 (Casein kinase I): > 10 µM
SMILES: O=C1Cc2c([nH]c3cc[n+](Cc4ccccc4)cc23)-c2ccccc2N1.[Br-]

pIC50 [1]: 7.92
SMILES: O=C1NCC/C(=N\Nc2cccnc2)c2c1[nH]c1ccc(F)cc21

pIC50 [2]: 6.30 | pIC50 [10]: 6.30
SMILES: N#Cc1ccc2[nH]c3c(c2c1)CC(=O)Nc1cccnc1-3 [CAZPAULLONE]

GI50 (786-0): 6.6 µM
SMILES: O=C1Cc2c(-c3ccccc3)cc(-c3ccco3)nc2-c2ccccc2N1

pIC50 [3]: < 4.00 | pIC50 [4]: < 3.00 | pIC50 [5]: < 3.00 | pIC50 [6]: < 4.00 | pIC50 [7]: 4.42
SMILES: O=C1Cc2c([nH]c3ccc(Br)cc23)-c2ccccc2N1 [KENPAULLONE]

pIC50 [1]: 6.92
SMILES: O=C1Cc2c([nH]c3ccc(Br)cc23)-c2sccc2N1

pIC50 [11]: 7.66
SMILES: O=C1Nc2ccccc2/C1=C1/Nc2ccccc2/C1=N\O

The next lines start with the compound.

SMILES: O=C1Cc2c(-c3ccccc3)cc(-c3ccc(Cl)cc3)nc2-c2ccccc2N1
GI50 (786-0): 1.7 µM

SMILES: NC1=NC(=O)/C(=C2\CCNC(=O)c3[nH]c4ccc(Cl)cc4c32)N1
pIC50 [1]: 6.72 | pIC50 [2]: 5.64

SMILES: O=C(O)CC1CCC(=O)N(CC(=O)NCc2ccc(Nc3nc4ccccc4[nH]3)cc2)c2ccccc21 (stereo unspecified)
pIC50 (Integrin alpha-V/beta-3): 9.30

SMILES: COc1ccc2c3c([nH]c2c1)C(=O)NCc1ccccc1-3
pIC50 (MDA-MB-231): 5.40 | pIC50 (MCF7): 5.40

SMILES: O=C(O)CC1CCC(=O)N(CC(=O)NC[C@H]2CC[C@H](Nc3nc4ccccc4[nH]3)CC2)c2ccccc21 (stereo partly specified)
pIC50 (Integrin alpha-V/beta-3): 10.40

SMILES: O=C1Cc2c(-c3ccco3)cc(-c3ccccc3)nc2-c2ccccc2N1
GI50 (786-0): 5.5 µM

SMILES: O=C1NCc2ccccc2-c2c1[nH]c1ccccc21
pIC50 (MDA-MB-231): 6.22 | pIC50 (MCF7): 6.22

SMILES: CC(=O)NC1=NC(=O)/C(=C2\CCNC(=O)c3[nH]c(Br)c(Br)c32)N1
pIC50 [1]: 6.27 | pIC50 [2]: 5.82

SMILES: Nc1ncc2c(n1)CNC(=O)c1[nH]c(Br)c(Br)c1-2
EC50 (L5178Y): 9 µg/mL (≈ 24.1 µM)

SMILES: COc1ccc2c(c1)C(CC(=O)O)CCC(=O)N2CC(=O)NC[C@H]1CC[C@H](Nc2nc3ccccc3[nH]2)CC1 (stereo partly specified)
pIC50 (Integrin alpha-V/beta-3): 9.59
